From patent US20110033376A1, “Treatment of Melanoma” (priority 2007, published 2011)

Legend:
A375 melanoma cells [1] = experiment: Sulforhodamine B (SRB) growth inhibition assay; type: cell-based, human
Description: (§1) The ability of dexanabinol to inhibit melanoma cell growth was also studied in 3 melanoma cell lines (A375, UACC62, Malme-3M) using the Sulforhodamine B (SRB) assay.
(§2) Sterile solutions of the final concentrations of dexanabinol were prepared (0.001 μM to 100 μM in 0.5% DMSO).
(§3) The cells were incubated with drug concentrations in 0.5% DMSO (100 μl total volume per well) at 37° C. in 5% CO2 for 5 days. Control wells contained cells plus 0.5% DMSO plus medium.
(§4) The SRB growth inhibition assay was conducted over 24 and 5 day exposure periods. Following exposure, the cells were fixed, stained with SRB and read on a SpectorMax® 250 microplate spectrophotometer system plate reader.

UACC62 melanoma cells = experiment: Sulforhodamine B (SRB) growth inhibition assay; type: cell-based, human; details: UACC62, 5-day exposure
Description: as §1, §2, §3, §4

[2] = tested on: human melanoma cell lines (A375, G-361, WM266-4); experiment: Caspase 3/7 apoptosis induction, summary over melanoma cell lines; type: cell-based
Description: (§5) 3 human melanoma cell lines (A375, G-361, WM266-4) were maintained in RPMI 1640 culture medium (Sigma, UK) containing 10% (v/v) heat inactivated foetal bovine serum (Sigma, UK) and 2 mM […] at 37° C. in 5% humidified CO2. Cells were harvested, washed, re-suspended into growth medium and counted (Beckman-Coulter Vi-CELL XR). Cells were plated onto the middle 240 wells of 384 tissue culture plates at 1.6×10^5 to 2.4×10^5 cells/ml in 12.5 μl/well aliquots. 50 μl of growth media was aliquoted into the outer wells. 2 plates were prepared per cell line. Plates were incubated overnight at 37° C., in 5% humidified CO2.
(§6) Dexanabinol was prepared in growth medium at 2 times the final assay concentration at 125, 31.3, 7.81, 2.00, 0.49, 0.12, 0.031 and 0.008 μM (DMSO concentration was kept constant across the dilution range at 0.5%).
(§7) Cisplatin was used as a positive control. The final assays concentrations were 10, 2.5, 0.63, 0.156, 0.039, 0.010, 0.002 and 0.0006 μg/ml. […] 12.5 μl of growth media was added to the media control wells. The plates were incubated for 24 hours at 37° C., in 5% humidified CO2.
(§8) Caspase 3/7 levels were assessed by Apo-ONE© Homogeneous Caspase-3/7 assay kit. Fluorescence was measured using a FlexStation© II^384 plate reader at 1, 2, 3 and 4 hours after addition of the caspase substrate. The 4 hour readings were used for analysis.

Malme-3M melanoma cells = experiment: Sulforhodamine B (SRB) growth inhibition assay; type: cell-based; details: Homo sapiens, 120 h, 5-day exposure
Description: as §1, §2, §3, §4

[3] = tested on: all tested human melanoma cell lines; experiment: In vitro cell proliferation assays, summary over all tested lines; type: cell-based
Description: (§9) The cell viability assay was performed in parallel on the same plate for each line using CellTiter-Blue© (Promega) reagent. Briefly, 25 μl of CellTiter-Blue© (Promega) reagent was added to each well. The plates were shaken for 1 minute at 500 rpm and then incubated at 37° C., 5% CO2 for 4 hours.
as §1, §4

[4] = Preliminary pharmacokinetic (PK) and maximum tolerated dose (MTD) study; type: in vivo, CD1 A375 tumour-bearing mice; details: CD1 mice
Description: (§10) Having established that dexanabinol inhibited melanoma cell proliferation in vitro, we then sought to establish whether the compound was active in vivo. A preliminary pharmacokinetic (PK) and maximum tolerated dose (MTD) study was carried out to determine whether therapeutically effective dose levels of dexanabinol could be achieved in CD1 A375 tumour-bearing mice. […] On the basis of this, a single-dose efficacy study was undertaken. Dexanabinol was diluted in a vehicle of 10% Cremophor/Ethanol (1:1 v/v) in saline. Control mice received vehicle alone.

A375 melanoma cells [5] = experiment: Clonogenic assay, time-course effect on cell proliferation; type: cell-based, human; details: A375, 1 hour vs 24 hours exposure
Description: The time-course effect of dexanabinol on cell proliferation in one melanoma cell line, A375, was examined using the clonogenic assay method.
A375 cells were harvested from the growing cell culture and counted. Cells were diluted to 1.0×10^5/ml and seeded 2 ml/well to 6 well plates.
The cells were incubated overnight at 37° C. in humidified incubator 95% air+5% CO2.
The cells were treated with dexanabinol at 4 doses up to 20 μM at 3 exposure periods (1 hour, 6 hours and 24 hours).
After each exposure period, the cells were harvested from the wells by washing twice with PBS then adding 0.2 ml of single strength trypsin to each well and incubating at 37° C. until the cells detached. Cell suspensions were counted at 1/10 dilution and then diluted to 1/10, 1/100, 1/1000.
10 cm dishes (containing 7 ml fresh medium) were seeded with 3 different cell densities for dexanabinol treatment and control treatment. When colonies of suitable size formed in the control dishes, dishes were fixed, stained and counted.
Percentage survival in the dexanabinol treated A375 cells was calculated using the following equation: […]

[6] = tested on: A375 human tumour xenograft; experiment: Single-dose efficacy study, human melanoma cell xenograft growth; type: in vivo; details: single dose 100 mg/kg i.v., CD1 nude mice bearing A375 xenograft
Description: as §10
10 mice received 100 mg/kg i.v. dexanabinol. 10 mice received Vehicle (10 ml/kg) Mice were implanted with 1×10^7 A375 human melanoma cells, in 50 μl of medium, on the flank. Once tumours were palpable (approx 5 mm×5 mm) 20 mice were treated with either dexanabinol or vehicle (as outlined above). […] Tumour size was measured 3 times a week after treatment. The treatment lasted 4 weeks

[7] = tested on: 3 melanoma cell lines (A375, G-361, WM266-4); experiment: CellTiter-Blue cytotoxic response, summary over 3 melanoma cell lines; type: cell-based; details: Homo sapiens, 24 h, read-out: IC50 of cytotoxic response
Description: Cells were harvested, washed, re-suspended into growth medium and counted (Beckman-Coulter Vi-CELL XR). […] 50 μl of growth media was aliquoted into the outer wells. 2 plates were prepared per cell line. Plates were incubated overnight at 37° C., in 5% humidified CO2.
The final assays concentrations were 10, 2.5, 0.63, 0.156, 0.039, 0.010, 0.002 and 0.0006 μg/ml. […] 12.5 μl of growth media was added to the media control wells. The plates were incubated for 24 hours at 37° C., in 5% humidified CO2.
The plates were shaken for 1 minute at 500 rpm and then incubated at 37° C., 5% CO2 for 4 hours.

G-361 melanoma cells [8] = experiment: Apo-ONE Homogeneous Caspase-3/7 assay (induction of apoptosis); type: cell-based, human; details: G-361, 24 hours incubation
Description: as §5, §6, §7, §8

A375 melanoma cells [9] = experiment: as above; type: cell-based, human; details: A375, 24 hours incubation
Description: as §5, §6, §7, §8

WM266-4 melanoma cells [10] = experiment: as above; type: cell-based, human; details: WM266-4, 24 hours incubation; for EC50: caspase 3/7
Description: as §5, §6, §7, §8

G-361 melanoma cells [11] = experiment: CellTiter-Blue cell viability assay; type: cell-based, human; details: G-361, 24 hours incubation; for IC50: CellTiter-Blue
Description: as §5, §6, §7, §9

A375 melanoma cells [12] = experiment: CellTiter-Blue cell viability assay; type: cell-based, human; details: A375, 24 hours incubation; for IC50: CellTiter-Blue
Description: as §5, §6, §7, §9

WM266-4 melanoma cells [13] = experiment: CellTiter-Blue cell viability assay; type: cell-based, human; details: WM266-4, 24 hours incubation; for IC50: CellTiter-Blue
Description: as §5, §6, §7, §9

## CCCCCCC(C)(C)c1cc(O)c2c(c1)OC(C)(C)[C@H]1CC=C(CO)C[C@H]21 [Dexanabinol, 1,1 dimethyl heptyl-(3S,4S)-7-hydroxy-Δ^6-tetrahydrocannabinol]
A375 melanoma cells [1]; A375, 5-day exposure
  GI50: 14.4 µM
A375 melanoma cells [1]; Homo sapiens, A-375, 24 h, A375, 24-hour exposure
  GI50: 14.3 µM
A375 melanoma cells [1]; Homo sapiens, A-375, 120 h, A375, 5-day exposure
  GI50: 16.2 µM
UACC62 melanoma cells; Homo sapiens, UACC-62, 120 h
  GI50: 18.5 µM
UACC62 melanoma cells
  GI50: 18.1 µM
[2]; 24 hours incubation, response dropped at the highest concentration
  Concentration of peak response in apoptosis: 2.5 µM
[2]; caspase 3/7
  Mode of cell death: induced apoptotic cell death in a caspase 3/7 dependent manner
Malme-3M melanoma cells
  GI50: 13.3 µM
[3]; all tested human melanoma cell lines
  Mean concentration at which profoundly cytotoxic: ~14
[3]; in vitro
  Drug concentrations at which in vitro anti-tumour effects were observed: 10 to 20 µM
[4]; at the MTD, 100 mg/kg i.v. single dose
  Plasma concentration: 10 µM
[4]; mouse, in vivo, iv, i.v. single dose
  MTD: 100 mg/kg
A375 melanoma cells [5]
  Time dependence of cell killing: time-independent
[6]
  Effect on tumour xenograft growth: growth delaying effect
[7]
  IC50: 10 to 21 µM
G-361 melanoma cells [8]
  Rank of apoptosis induction: ND* (weak apoptosis induction and decrease in proliferation (<35%))
A375 melanoma cells [9]
  Rank of apoptosis induction: ND*** (good apoptosis induction and decrease in proliferation (>70%))
WM266-4 melanoma cells [10]; Homo sapiens, WM 266-4
  EC50: 13 µM
WM266-4 melanoma cells [10]
  Rank of apoptosis induction: *** (good apoptosis induction and decrease in proliferation (>70%))
G-361 melanoma cells [11]
  Rank of decrease in proliferation (viability): *** (good apoptosis induction and decrease in proliferation (>70%))
G-361 melanoma cells [11]; Homo sapiens
  IC50: 11 µM
A375 melanoma cells [12]
  Rank of decrease in proliferation (viability): ** (moderate apoptosis induction and decrease in proliferation (35-70%))
A375 melanoma cells [12]; Homo sapiens, A-375
  IC50: 19.2 µM
WM266-4 melanoma cells [13]; Homo sapiens, WM 266-4
  IC50: 20.9 µM
WM266-4 melanoma cells [13]
  Rank of decrease in proliferation (viability): ** (moderate apoptosis induction and decrease in proliferation (35-70%))

## N.N.[Cl][Pt][Cl] [Cisplatin]
G-361 melanoma cells [8]
  Rank of apoptosis induction: ** (moderate apoptosis induction and decrease in proliferation (35-70%))
G-361 melanoma cells [8]; caspase 3/7
  EC50: 33.3 to 100 µM
A375 melanoma cells [9]
  Rank of apoptosis induction: ** (moderate apoptosis induction and decrease in proliferation (35-70%))
A375 melanoma cells [9]; caspase 3/7
  EC50: 5.67 µM
WM266-4 melanoma cells [10]
  Rank of apoptosis induction: *** (good apoptosis induction and decrease in proliferation (>70%))
  EC50: 33.3 to 100 µM
G-361 melanoma cells [11]
  Rank of decrease in proliferation (viability): ** (moderate apoptosis induction and decrease in proliferation (35-70%))
  IC50: 18 µM
A375 melanoma cells [12]
  Rank of decrease in proliferation (viability): ** (moderate apoptosis induction and decrease in proliferation (35-70%))
  IC50: 21.8 µM
WM266-4 melanoma cells [13]
  Rank of decrease in proliferation (viability): * (weak apoptosis induction and decrease in proliferation (<35%))
  IC50: 62 µM
